Test results published in patent US20160257697A1, “THIOPHENE-SUBSTITUTED TETRACYCLIC COMPOUNDS AND METHODS OFUSE THEREOF FOR THE TREATMENT OF VIRAL DISEASES” (priority 2013, published 2016).
Like-named read-outs stand apart in the source and are kept apart here.

Key:
Experiment in all cases: microbe, parasite or virus in culture
Format in all cases: cell-based, Hepatitis C virus (HCV)
Details in all cases: Replicon Assay A
HCV replicon 1AY93H = tested on: HCV replicon 1AY93H
Procedure, shortened: (§1)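 Cells seeded 2000/well + compound; 0.5% DMSO, 5% FBS; harvest day 3, lyse. Multiplex TaqMan RT-PCR for replicon (Neo probe) and cyclophilin RNA; amounts from Ct vs log(ng) linear regression of replicon total RNA standards.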

HCV replicon 1A = tested on: HCV replicon 1A
Procedure, shortened: as §1

HCV replicon 2B = tested on: HCV replicon 2B
Procedure, shortened: as §1

[1] = Hepatitis C virus, read-out: 1A Y93H IC50, HCV replicon 1A Y93H
[2] = Hepatitis C virus, HCV replicon 1A
[3] = Hepatitis C virus, read-out: 2B IC50, HCV replicon 2B
[4] = read-out: 1A Y93H IC50, HCV replicon 1A Y93H
[5] = read-out: 2B IC50, HCV replicon 2B
[6] = read-out: 1A Y93H IC50, replicon 1AY93H
[7] = Hepatitis C virus, read-out: 1A Y93H IC50 (nM), replicon 1AY93H
[8] = Hepatitis C virus, read-out: 2B IC50 (nM), replicon 2B

Structure (SMILES)	IC50 (HCV replicon 1AY93H; [4]) [nM]	IC50 (HCV replicon 1A; HCV replicon 1A) [nM]	IC50 (HCV replicon 2B; [5]) [nM]	IC50 (HCV replicon 1AY93H; [6]) [nM]	IC50 (HCV replicon 1A; replicon 1A) [nM]	IC50 (HCV replicon 2B; read-out: 2B IC50, replicon 2B) [nM]	further results
COC(=O)N[C@H](C(=O)C1NCC[C@H]1c1ncc(-c2ccc3c(c2)OC(c2ccc(C4CC4)s2)n2c-3cc3cc(-c4c[nH]c([C@@H]5C[C@H]6C[C@H]6N5C(=O)[C@@H](NC(=O)OC)C(C)C)n4)ccc32)[nH]1)C(C)C (mixture of isomers) [Compound 504]							IC50 (HCV replicon 1AY93H; [1]): 0.245 nM; IC50 (HCV replicon 1A; [2]): 0.0167 nM; IC50 (HCV replicon 2B; [3]): 1.52 nM
COC(=O)N[C@H](C(=O)N1CCC[C@H]1c1nc(-c2cc(F)c3c(c2)OC(c2ccc(C4CC4)s2)n2c-3cc3cc(-c4c[nH]c([C@@H]5C[C@H]6C[C@H]6N5C(=O)[C@@H](NC(=O)OC)C(C)C)n4)ccc32)c[nH]1)C(C)C (single isomer, unassigned) [Compound 720]	0.52	0.0019	3.99				
[2H]C(C)(C)C(NC(=O)OC)C(=O)N1CCC[C@H]1c1ncc(-c2cc(F)c3c(c2)OC(c2ccc(C4CC4)s2)n2c-3cc3cc(-c4cnc([C@@H]5CCCN5C(=O)[C@@H](NC(=O)OC)C(C)C)[nH]4)ccc32)[nH]1 (single isomer, unassigned) [Compound 32]				1.42	0.0013	6.02	
COC(=O)NC(C(=O)N1CCC[C@H]1c1ncc(-c2ccc3c(c2)cc2n3C(c3cc4ccccc4s3)Oc3cc(-c4cnc([C@@H]5CCCN5C(=O)[C@@H](NC(=O)OC)C(C)C)[nH]4)cc(F)c3-2)[nH]1)C1C[C@@H](C)O[C@@H](C)C1 (single isomer, unassigned) [Compound 642]	0.066	0.0019	0.199				
COC(=O)N[C@@H](Cc1ccccc1)C(=O)N1CCC[C@H]1c1ncc(-c2ccc3c(c2)OC(c2ccc(-c4ccc(NC(=O)CCCC[C@@H]5SC[C@@H]6NC(=O)N[C@@H]65)cc4)s2)n2c-3cc3cc(-c4cnc([C@@H]5CCCN5C(=O)[C@H](Cc5ccccc5)NC(=O)OC)[nH]4)ccc32)[nH]1 (single isomer, unassigned) [Compound 383]				6.34	0.0367	8.74	
COC(=O)NC(C(=O)N1CCC[C@H]1c1ncc(-c2ccc3c(c2)cc2n3C(c3ccc(C4CC4)s3)Oc3cc(-c4cnc([C@@H]5CCCN5C(=O)[C@@H](NC(=O)OC)C(C)C)[nH]4)cc(F)c3-2)[nH]1)C1CC(C)(C)OC(C)(C)C1 (single isomer, unassigned) [Compound 420]	3.13		6.03				IC50 (HCV replicon 1A; [2]): 0.0029 nM
COC(=O)N[C@H](C(=O)N1CCC[C@H]1c1ncc(-c2cc(C)c3c(c2)OC(c2cc4c(s2)CCC4)n2c-3cc3cc(-c4cnc([C@@H]5CCCN5C(=O)[C@@H](NC(=O)OC)C5C[C@@H](C)O[C@@H](C)C5)[nH]4)ccc32)[nH]1)C(C)C (single isomer, unassigned) [Compound 549]	0.563	0.00715	0.169				
COC(=O)NC(C(=O)N1CCC[C@H]1c1ncc(-c2ccc3c(c2)cc2n3C(c3ccc(C(C)C)s3)Oc3cc(-c4cnc([C@@H]5CCCN5C(=O)[C@@H](NC(=O)OC)C(C)C)[nH]4)cc(F)c3-2)[nH]1)C1CCOC(C)(C)C1 (single isomer, unassigned) [Compound 238]				3.12	0.13	7.05	
COC(=O)NC(C(=O)N1CCC[C@H]1c1ncc(-c2cc(F)c3c(c2)OC(c2ccc(C4CC4)s2)n2c-3cc3cc(-c4cnc([C@@H]5CCCN5C(=O)[C@@H](NC(=O)OC)C(C)C)[nH]4)ccc32)[nH]1)C1CCOC(C)(C)C1 (single isomer, unassigned) [Compound 210]				0.52	0.0018	0.33	
CCc1ccc(C2Oc3cc(-c4cnc([C@@H]5CCCN5C(=O)[C@@H](NC(=O)OC)C(C)C)[nH]4)cc(F)c3-c3cc4cc(-c5cnc([C@@H]6C[C@H]7C[C@H]7N6C(=O)C(NC(=O)OC)C6CCOC(C)(C)C6)[nH]5)ccc4n32)s1 (single isomer, unassigned) [Compound 202]				0.49	0.0013	3.31	
COC(=O)N[C@H](C(=O)N1CCC[C@H]1c1cnc(-c2ccc3c(c2)cc2n3C(c3cc4ccccc4s3)Oc3cc(-c4cnc([C@@H]5CCCN5C(=O)[C@@H](NC(=O)OC)C5CCOCC5)[nH]4)ccc3-2)[nH]1)C1CCOCC1 (single isomer, unassigned) [Compound 811]	0.058	0.042	0.664				
CCc1ccc(C2Oc3cc(-c4cnc([C@@H]5CCCN5C(=O)C(NC(=O)OC)C5CCOC(C)(C)C5)[nH]4)cc(F)c3-c3cc4cc(-c5cnc([C@@H]6CCCN6C(=O)C(NC(=O)OC)C6CCOC(C)(C)C6)[nH]5)ccc4n32)s1 (single isomer, unassigned) [Compound 297]				8.37	0.0889	6.68	
COC(=O)N[C@H](C(=O)N1CCC[C@H]1c1nc(-c2ccc3c(c2)OC(c2ccc(C4CC4)s2)n2c-3cc3cc(-c4c[nH]c([C@@H]5CCCN5C(=O)[C@@H](NC(=O)OC)C5CCOCC5)n4)ccc32)c[nH]1)C1CCOCC1 (mixture of isomers) [Compound 728]							IC50 (HCV replicon 1AY93H; [1]): 0.02 nM; IC50 (HCV replicon 1A; [2]): 0.022 nM; IC50 (HCV replicon 2B; [3]): 0.022 nM
[2H]C(C)(C)C(NC(=O)OC)C(=O)N1CCC[C@H]1c1ncc(-c2cc(F)c3c(c2)OC(c2ccc(C4CC4)s2)n2c-3cc3cc(-c4cnc([C@@H]5CCCN5C(=O)[C@@H](NC(=O)OC)C(C)C)[nH]4)ccc32)[nH]1 (single isomer, unassigned) [Compound 29]				1.32	0.0024	1.98	
CC[C@@H]1CC(C(NC(=O)OC)C(=O)N2CCC[C@H]2c2ncc(-c3ccc4c(c3)cc3n4C(c4ccc(C5CC5)s4)Oc4cc(-c5cnc([C@@H]6CCCN6C(=O)[C@@H](NC(=O)OC)C(C)C)[nH]5)cc(F)c4-3)[nH]2)C[C@H](CC)O1 (single isomer, unassigned) [Compound 287]				0.074	0.0082	0.49	
COC(=O)N[C@H](C(=O)N1CCC[C@H]1c1ncc(-c2cc(F)c3c(c2)OC(c2ccc(C(C)(C)C)s2)n2c-3cc3cc(-c4cnc([C@@H]5CCCN5C(=O)[C@@H](NC(=O)OC)C(C)C)[nH]4)ccc32)[nH]1)C(C)C (single isomer, unassigned) [Compound 62]							IC50 (HCV replicon 1AY93H; [7]): 0.69 nM; IC50 (HCV replicon 1A; Hepatitis C virus, replicon 1A): 0.0014 nM; IC50 (HCV replicon 2B; [8]): 2.88 nM
COC(=O)N[C@H](C(=O)N1CCC[C@H]1c1ncc(-c2ccc3c(c2)OC(c2cc4ccccc4s2)n2c-3cc3cc(-c4cnc([C@@H]5C[C@@H](F)CN5C(=O)[C@@H](NC(=O)OC)C5CCOCC5)[nH]4)ccc32)[nH]1)C(C)C (single isomer, unassigned) [Compound 627]	0.0157	0.00302	0.631				
COC(=O)N[C@H](C(=O)N1CCC[C@H]1c1ncc(-c2cc(F)c3c(c2)OC(c2ccc(C4CC4)s2)n2c-3cc3cc(-c4cnc([C@@H]5CCCN5C(=O)[C@@H](NC(=O)OC)C5CCOCC5)[nH]4)ccc32)[nH]1)C(C)C (single isomer, unassigned) [Compound 126]							IC50 (HCV replicon 1AY93H; [7]): 0.27 nM; IC50 (HCV replicon 1A; Hepatitis C virus, replicon 1A): 0.0019 nM; IC50 (HCV replicon 2B; [8]): 0.21 nM
COC(=O)NC(C(=O)N1[C@@H]2C[C@@H]2C[C@H]1c1ncc(-c2ccc3c(c2)c(F)c2n3C(c3ccc(C4CC4)s3)Oc3cc(-c4cnc([C@@H]5CCCN5C(=O)[C@@H](NC(=O)OC)C(C)C)[nH]4)cc(F)c3-2)[nH]1)C1CCOC(C)(C)C1 (single isomer, unassigned) [Compound 422]	0.107		0.138				IC50 (HCV replicon 1A; [2]): 0.0023 nM
CCN(CC)[C@@H](C(=O)N1C[C@H](F)C[C@H]1c1nc(-c2ccc3c(c2)OC(c2ccc(C4CC4)s2)n2c-3cc3cc(-c4c[nH]c([C@@H]5C[C@@H](F)CN5C(=O)[C@@H](c5ccccc5)N(CC)CC)n4)ccc32)c[nH]1)c1ccccc1 (mixture of isomers) [Compound 733]							IC50 (HCV replicon 1AY93H; [1]): 0.35 nM; IC50 (HCV replicon 1A; [2]): 0.045 nM; IC50 (HCV replicon 2B; [3]): 0.063 nM
COC(=O)N[C@H](C(=O)N1CCC[C@H]1c1cnc(-c2ccc3c(c2)cc2n3C(c3cc4ccccc4s3)Oc3cc(-c4cnc([C@@H]5CCCN5C(=O)[C@@H](NC(=O)OC)C5CCOCC5)[nH]4)ccc3-2)[nH]1)C1CCOCC1 (single isomer, unassigned) [Compound 809]	0.82	0.016	4.2				
COC(=O)N[C@H](C(=O)N1CCC[C@H]1c1ncc(-c2cc(F)c3c(c2)OC(c2scc4c2OCCO4)n2c-3cc3cc(-c4cnc([C@@H]5CCCN5C(=O)[C@@H](NC(=O)OC)C(C)C)[nH]4)ccc32)[nH]1)C(C)C (single isomer, unassigned) [Compound 523]		0.0032	12.4				IC50 (HCV replicon 1AY93H; [1]): 11.7 nM
COC(=O)N[C@H](C(=O)N1C2CC2C[C@H]1c1ncc(-c2cc(F)c3c(c2)OC(c2ccc(C4CC4)s2)n2c-3cc3cc(-c4cnc([C@@H]5CCCN5C(=O)[C@@H](NC(=O)OC)C5C[C@@H](C)O[C@@H](C)C5)[nH]4)ccc32)[nH]1)C(C)C (single isomer, unassigned) [Compound 555]	0.105	0.00239	0.197				
COC(=O)N[C@H](C(=O)N1CCC[C@H]1c1ncc(-c2ccc3c(c2)OC(c2cc4ccccc4s2)n2c-3cc3cc(-c4cnc([C@@H]5C[C@@H](F)CN5C(=O)[C@@H](NC(=O)OC)C5CCOCC5)[nH]4)ccc32)[nH]1)C(C)C (single isomer, unassigned) [Compound 626]	0.013		0.179				IC50 (HCV replicon 1A; [2]): 0.00209 nM
COC(=O)N[C@H](C(=O)N1CCC[C@H]1c1ncc(-c2ccc3c(c2)OC(c2cc4ccccc4s2)n2c-3cc3cc(-c4cnc([C@@H]5C[C@H]6C[C@H]6N5C(=O)[C@@H](NC(=O)OC)C(C)C)[nH]4)ccc32)[nH]1)C(C)C (single isomer, unassigned) [Compound 610]	0.453	0.0124	0.272				
